In the supplement of paper PMC10307832:

Tests used:
Experiment in all cases: relative viability (nuclei count vs DMSO), 5 days (fraction); higher = more cells survive
BAM7 + Pictilisib = compound: CCOC1=CC=CC=C1N=NC2=C(NN(C2=O)C3=NC(=CS3)C4=CC=CC=C4)C [BAM7] + CS(=O)(=O)N1CCN(Cc2cc3nc(-c4cccc5[nH]ncc45)nc(N4CCOCC4)c3s2)CC1 [Pictilisib] (partner 1 µM)
Summary of the method: (§1)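 After 5 days of treatment, lung cancer cells in 1536-well plates were fixed and stained in a single step (final 0.05% Triton X-100, 1% formaldehyde, 1 ug/ml Hoechst) and their nuclei counted on 4× images. Treatment had been applied by pin tool the day after seeding as one drug alone or as a fixed anchor-drug dose with five library-drug doses (not always all listed) in √10 steps. Relative viability is the nuclei count of treated wells divided by that of vehicle wells, and values are medians of duplicate plates.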

BAM7 + AZD7762 = compound: CCOC1=CC=CC=C1N=NC2=C(NN(C2=O)C3=NC(=CS3)C4=CC=CC=C4)C [BAM7] + NC(=O)Nc1cc(-c2cccc(F)c2)sc1C(=O)N[C@H]1CCCNC1 [AZD7762] (partner 0.2 µM)
Summary of the method: as §1

BAM7 + Trametinib = compound: CCOC1=CC=CC=C1N=NC2=C(NN(C2=O)C3=NC(=CS3)C4=CC=CC=C4)C [BAM7] + CC(=O)Nc1cccc(-n2c(=O)n(C3CC3)c(=O)c3c(Nc4ccc(I)cc4F)n(C)c(=O)c(C)c32)c1 [Trametinib] (partner 0.02 µM)
Summary of the method: as §1

[1] = compound: CCn1c(-c2nonc2N)nc2c(C#CC(C)(C)O)ncc(OC[C@H]3CCCNC3)c21 + N=C(N)NC(=N)NCCc1ccccc1 [Phenformin] (partner 250 µM)
Summary of the method: as §1

| Cell Line | relative viability (BAM7 + Pictilisib; first compound 0.5 µM) | relative viability (BAM7 + Pictilisib; first compound 5 µM) | relative viability (BAM7 + Pictilisib; first compound 15.81 µM) | relative viability (BAM7 + Pictilisib; first compound 50 µM) | relative viability (BAM7 + AZD7762; first compound 0.5 µM) | relative viability (BAM7 + AZD7762; first compound 5 µM) | relative viability (BAM7 + AZD7762; first compound 15.81 µM) | relative viability (BAM7 + AZD7762; first compound 50 µM) | relative viability (BAM7 + Trametinib; first compound 0.5 µM) | relative viability (BAM7 + Trametinib; first compound 5 µM) | relative viability (BAM7 + Trametinib; first compound 15.81 µM) | relative viability (BAM7 + Trametinib; first compound 50 µM) | relative viability ([1]; first compound 0.01 µM) | relative viability ([1]; first compound 0.03162 µM) | relative viability ([1]; first compound 0.1 µM) | relative viability ([1]; first compound 0.3162 µM) | relative viability ([1]; first compound 1 µM) |
| --- | --- | --- | --- | --- | --- | --- | --- | --- | --- | --- | --- | --- | --- | --- | --- | --- | --- |
| IA-LM | 0.356 | 0.306 | 0.37 | 0.392 |  |  |  |  |  |  |  |  |  |  |  |  |  |
| NCI-H322M | 0.53 | 0.623 | 0.549 | 0.578 | 0.554 | 0.467 | 0.544 | 0.583 | 0.525 | 0.577 | 0.496 | 0.571 | 0.717 | 0.727 | 0.677 | 0.7 | 0.744 |
| NCI-H3122 | 0.75 | 0.689 | 0.685 | 0.694 | 0.946 | 1.13 | 0.918 | 0.846 | 0.24 | 0.232 | 0.283 | 0.198 | 0.401 | 0.364 | 0.447 | 0.389 | 0.374 |
| COR-L23 | 0.832 | 0.855 | 0.743 | 0.872 |  |  |  |  | 0.519 | 0.58 | 0.614 | 0.657 | 0.444 | 0.399 | 0.422 | 0.373 | 0.389 |
| NCI-H2087 | 1.09 | 1.1 | 0.989 | 0.893 | 1.34 | 1.47 | 1.25 | 1.07 | 0.18 | 0.181 | 0.204 | 0.173 | 0.454 | 0.572 | 0.478 | 0.43 | 0.465 |
| LC-2-ad | 0.581 | 0.222 | 0.383 | 0.427 | 0.916 | 0.832 | 0.832 | 0.805 | 0.884 | 0.91 | 0.87 | 0.847 | 0.571 | 0.523 | 0.556 | 0.537 | 0.614 |
| NCI-H1915 | 1.01 | 1.15 | 0.898 | 1.04 | 0.676 | 0.671 | 0.759 | 0.741 | 0.333 | 0.317 | 0.272 | 0.323 | 0.384 | 0.385 | 0.36 | 0.357 | 0.36 |
| NCI-H1793 | 0.445 | 0.3 | 0.317 | 0.358 | 0.544 | 0.341 | 0.428 | 0.426 | 0.407 | 0.473 | 0.385 | 0.483 | 0.339 | 0.436 | 0.371 | 0.331 | 0.401 |
| NCI-H2023 | 0.277 | 0.245 | 0.3 | 0.297 |  |  |  |  | 0.525 | 0.437 | 0.398 | 0.49 | 0.4 | 0.409 | 0.412 | 0.3 | 0.34 |
| COR-L 105 | 0.366 | 0.427 | 0.432 | 0.455 |  |  |  |  | 0.404 | 0.525 | 0.466 | 0.272 | 0.407 | 0.516 | 0.468 | 0.417 | 0.463 |
| RERF-LC-KJ | 0.551 | 0.496 | 0.492 | 0.515 | 0.992 | 1.11 | 0.855 | 0.627 | 0.767 | 0.708 | 0.526 | 0.642 | 0.391 | 0.408 | 0.438 | 0.356 | 0.416 |
| NCI-H520 | 0.273 | 0.3 | 0.264 | 0.324 |  |  |  |  | 0.595 | 0.782 | 0.804 | 0.789 | 0.424 | 0.561 | 0.303 | 0.236 | 0.233 |
| SK-LU-1 | 0.502 | 0.658 | 0.678 | 0.737 |  |  |  |  | 0.575 | 0.525 | 0.527 | 0.499 | 0.552 | 0.575 | 0.455 | 0.48 | 0.537 |
| NCI-H522 |  |  |  |  | 0.748 | 0.967 | 0.851 | 0.851 | 0.72 | 0.741 | 0.665 | 0.718 | 0.636 | 0.648 | 0.629 | 0.576 | 0.624 |
| NCI-H1299 | 0.675 | 0.779 | 0.782 | 0.824 |  |  |  |  |  |  |  |  |  |  |  |  |  |
| NCI-H1650 | 0.524 | 0.572 | 0.565 | 0.699 |  |  |  |  | 0.607 | 0.467 | 0.578 | 0.727 | 0.457 | 0.478 | 0.404 | 0.277 | 0.303 |
| NCI-H2009 | 0.899 | 0.827 | 0.846 | 0.854 |  |  |  |  | 0.265 | 0.229 | 0.268 | 0.283 | 0.473 | 0.491 | 0.519 | 0.458 | 0.452 |
| NCI-H1648 |  |  |  |  | 0.489 | 0.775 | 0.633 | 0.921 | 0.558 | 0.476 | 0.421 | 0.464 |  |  |  |  |  |
| SK-MES-1 | 0.432 | 0.455 | 0.369 | 0.358 |  |  |  |  | 0.566 | 0.551 | 0.523 | 0.495 | 0.654 | 0.642 | 0.66 | 0.617 | 0.673 |
| NCI-H2342 |  |  |  |  | 0.53 | 0.61 | 0.431 | 0.388 | 0.933 | 0.818 | 0.745 | 0.82 | 0.532 | 0.627 | 0.598 | 0.545 | 0.574 |
| SW 900 |  |  |  |  |  | 0.592 |  | 0.691 |  | 0.72 |  | 0.888 | 0.505 | 0.621 | 0.671 | 0.601 | 0.49 |
| A549 | 0.566 | 0.507 | 0.483 | 0.508 |  |  |  |  |  |  |  |  | 0.197 | 0.212 | 0.164 | 0.17 | 0.154 |
| NCI-H661 | 0.406 | 0.426 | 0.452 | 0.423 |  |  |  |  | 0.561 | 0.638 | 0.606 | 0.619 | 0.277 | 0.259 | 0.265 | 0.145 | 0.239 |
| NCI-H1563 | 0.651 | 0.714 | 0.642 | 0.639 |  |  |  |  |  |  |  |  | 0.623 | 0.618 | 0.701 | 0.63 | 0.649 |
| ABC-1 | 0.746 | 0.674 | 0.984 | 0.857 | 0.755 | 1.29 | 0.863 | 0.783 |  |  |  |  | 0.244 | 0.204 | 0.236 | 0.228 | 0.255 |
